Patent publication US10688197B2, “Non-alcoholic fatty liver regulator 14-3-3 protein” (Korea University Research and Business Foundation, priority 2015, dated 2020)

Key:
HepG2 cells [1] = assay: mRNA expression by PCR in HepG2 cells; format: cell-based, human; conditions: for mRNA expression of SREBP-1c and FAT/CD36: HepG2, overexpression, 200 μM oleic acid 72 hours, FIG. 7A
Experimental: For mRNA extraction, the corresponding cells were lysed with 1 ml/well of TRIzol (Invitrogen), 200 μl of chloroform was added thereto and mixed well, the resultant cells were maintained at room temperature for 5 minutes and then centrifuged at 12,000×g and 4° C. for 15 minutes, the obtained supernatant was mixed with 500 μl of isopropanol and then put on ice for 10 minutes, the resulting supernatant was centrifuged at 12,000×g and 4° C. for 15 minutes to remove a supernatant, and then pellets were dissolved with tertiary distilled water treated with diethyl pyrocarbonate (DEPC). 2 μg of mRNA was synthesized into cDNA using a Superscript First Strand cDNA Synthesis Kit (Bioneer, Daejeon, South Korea) and the synthesized cDNA as a template was amplified through polymerase chain reaction (PCR) using primers specific to PPARγ2, 14-3-3β, 14-3-3γ, SREBP-1c, SCD-1, ACC, FABP, FAT/CD36, and β-actin of humans, and was amplified through real-time PCR using primers specific to PPARγ2, 14-3-3β, 14-3-3γ, SREBP-1c, FAT/CD36, and GAPDH of mice. β-actin and GAPDH were used as controls to see whether mRNAs of the respective cells were compared in the same amount.
HepG2 cells were seeded in a 6-well plate at a density of 4×10^5 cells per each well, and then transfected with GFP-14-3-3β DNA (4 μg) or GFP-14-3-3γ DNA (4 μg) using an E-fection plus reagent (Lugen). A ratio of DNA to the E-fection plus reagent was 1:2, and this method was performed according to a manufacturer's manual. After transfection, […], and for mRNA extraction, the corresponding cells were lysed with 1 ml/well of TRIzol (Invitrogen), 200 μl of chloroform was added thereto and mixed well, the resultant cells were maintained at room temperature for 5 minutes and then centrifuged at 12,000×g and 4° C. for 15 minutes, the obtained supernatant was mixed with 500 μl of isopropanol and then put on ice for 10 minutes, and the resulting supernatant was centrifuged at 12,000×g and 4° C. for 15 minutes to remove a supernatant, and then pellets were dissolved with tertiary distilled water treated with diethyl pyrocarbonate (DEPC). 2 μg of mRNA was synthesized into cDNA using a Superscript First Strand cDNA Synthesis Kit (Bioneer, Daejeon, South Korea) and the synthesized cDNA as a template was amplified through polymerase chain reaction (PCR) using primers specific to PPARγ2 (SEQ ID NOS: 1 and 2), 14-3-3β (SEQ ID NOS: 3 and 4), 14-3-3γ (SEQ ID NOS: 5 and 6), SREBP-1c, FAT/CD36, and β-actin of humans, and was amplified through real-time PCR using primers specific to SREBP-1c, FAT/CD36, and GAPDH of mice. β-actin and GAPDH were used as controls to see whether mRNAs of the respective cells were compared in the same amount.

HepG2 cells [2] = assay: Oil Red-O lipid accumulation in HepG2 cells; format: cell-based, human; conditions: for lipid accumulation by oleic acid: HepG2, overexpression, 200 μM oleic acid 72 hours, FIG. 9B
Experimental: HepG2 cells and primary mouse hepatocytes were separately seeded in a 6-well plate at a density of 4×10^5 cells per each well, and then transfected with GFP-14-3-3β DNA (1 μg) or GFP-14-3-3γ DNA (1 μg) and si-14-3-3β (10 μM, Santa Cruz) or si-14-3-3γ (10 μM, Santa Cruz) using an E-fection plus reagent (Lugen). A ratio of DNA to the E-fection plus reagent was 1:2, and this method was performed according to a manufacturer's manual. […] The stained cells were bleached with 1 ml of isopropanol and analyzed at a wavelength of 550 nm using a DU530 spectrophotometer (Beckman Instruments, Palo Alto, Calif.).

PPARγ2 = target: T1, PPARγ2 (Homo sapiens, UniProt P37231); assay: aP2 promoter luciferase reporter, transcriptional activity of PPARγ2 in HEK-293T cells; format: cell-based; conditions: for transcriptional activity of PPARγ2: overexpressed according to concentration, concentration-dependent manner, FIG. 1B/1C; for transcriptional activity of PPARγ2 (activity of the aP2 promoter): overexpression of 14-3-3 isoform proteins (0.5 μg), HEK-293T, 10 μM pioglitazone 24 hours, FIG. 1A
T1 construct: endogenous in cells; host or cells: HEK-293T
T1 sequence (P37231 1-505): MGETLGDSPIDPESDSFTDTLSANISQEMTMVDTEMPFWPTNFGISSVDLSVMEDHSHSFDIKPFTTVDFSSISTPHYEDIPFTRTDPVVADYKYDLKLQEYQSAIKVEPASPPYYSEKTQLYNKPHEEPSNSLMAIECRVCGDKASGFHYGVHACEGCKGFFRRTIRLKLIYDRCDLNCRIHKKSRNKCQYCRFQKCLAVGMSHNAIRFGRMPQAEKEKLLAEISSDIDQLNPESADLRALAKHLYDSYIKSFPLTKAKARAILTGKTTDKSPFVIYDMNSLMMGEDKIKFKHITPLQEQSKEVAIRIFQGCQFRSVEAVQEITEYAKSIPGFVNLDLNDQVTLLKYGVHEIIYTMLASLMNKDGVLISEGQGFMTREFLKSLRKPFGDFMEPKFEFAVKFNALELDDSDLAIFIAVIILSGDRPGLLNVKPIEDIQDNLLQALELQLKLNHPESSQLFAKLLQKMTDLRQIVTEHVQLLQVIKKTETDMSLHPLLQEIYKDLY
Experimental: The transcriptional activity of PPARγ2 plays a vital role in expression of liver diseases-associated proteins. Thus, the transcriptional activity of PPARγ2 was measured using an aP2 promoter regulated by PPARγ2, and the role of 7 types of 14-3-3 proteins was investigated.
For this, HEK-293T cells were seeded in a 12-well plate at a density of 1×10^5 cells per each well, and then transfected with an aP2 promoter construct (0.5 μg) and 14-3-3 isoform proteins (α, β, γ, δ, ε, ζ, η, θ) (0.5 μg) or si-14-3-3β and si-14-3-3γ siRNA (5 nM and 10 nM, Santa Cruz) using an E-fection plus reagent (Lugen). A ratio of DNA to the E-fection plus reagent was 1:2, and this method was performed according to a manufacturer's manual. After transfection, the corresponding cells were treated with 10 μM of pioglitazone (Pio, Santa Cruz) for 24 hours, washed with ice-cold PBS, and lysed using 80 μl/well of a reporter lysis buffer (Promega, Madison, Wis.), and the lysed cells were centrifuged at 10,000×g and 4° C. for 10 minutes to collect a supernatant, and luciferase activity was measured. As an instrument, Luminometer 20/20n (Turner Biosystems, Sunnyvale, Calif.) was used. For normalization, the cells were cotransfected with pSV40-β-galactosidase. For the collected supernatant, β-galactosidase activity was measured and the luciferase activity was revised, and the obtained values were plotted. At this time, a β-galactosidase enzyme analysis system (Promega, Madison, Wis.) was used, and analysis was performed using a DU530 spectrophotometer (Beckman Instruments, Palo Alto, Calif.).

In the case of `CCCCCCCC/C=C\CCCCCCCC(=O)O` [oleic acid], the “mRNA expression of PPARγ2” value (HepG2 cells [1]; HepG2, oleic acid concentration-dependent, FIG. 6A) is reported as “increased”, the “mRNA expression of lipid metabolism-associated genes (PPARγ2 target genes)” value (HepG2 cells [1]; HepG2, oleic acid concentration-dependent, FIG. 6C) is reported as “increased” and the “mRNA expression amounts of 14-3-3β and 14-3-3γ” value (HepG2 cells [1]; HepG2, oleic acid treatment, FIG. 6A) is reported as “no changes”. The lipid accumulation (HepG2 cells [2]; HepG2, concentration-dependent treatment of oleic acid, FIG. 9A) was “increased”.

“14-3-3γ: 14-3-3 isoform protein overexpressed by DNA transfection; decreases the transcriptional activity of PPARγ2; proposed active ingredient” was tested, and the “mRNA expression of SREBP-1c and FAT/CD36” value (HepG2 cells [1]) was “reduced”, the “lipid accumulation by oleic acid” value (HepG2 cells [2]) was “reduced” and the “transcriptional activity of PPARγ2” value (PPARγ2) was “reduced”. The “transcriptional activity of PPARγ2 (activity of the aP2 promoter)” value (PPARγ2) was “decreased”.

For “14-3-3β: 14-3-3 isoform protein overexpressed by DNA transfection; increases the transcriptional activity of PPARγ2 by binding to PPARγ2”, the “mRNA expression of SREBP-1c and FAT/CD36” value (HepG2 cells [1]) was “further increased”, the “lipid accumulation by oleic acid” value (HepG2 cells [2]) was “increased” and the “transcriptional activity of PPARγ2” value (PPARγ2) was “increased”. The “transcriptional activity of PPARγ2 (activity of the aP2 promoter)” value (PPARγ2) was “increased”.
